From article PMC7600788, “Sequence Permutation Generates Peptides with Different Antimicrobial and Antibiofilm Activities” (Pharmaceuticals, 2020)
Like-named read-outs stand apart in the source and are kept apart here. No end group written: not given here.

How the values were obtained:
[1] = tested on: A. baumannii B28-16; type: cell-based, Acinetobacter baumannii
Method: (§1) The antimicrobial activity spectrum of the WW peptide series was performed on a panel of Gram-positive and -negative bacteria using the standard broth micro-dilution method with minor modifications as described. […] There was a small change in the case of Pseudomonas aeruginosa and Acinetobacter baumannii up to two-fold. Four-fold changes were found for Staphylococcus aureus, Staphylococcus epidermidis, Escherichia coli, and Bacillus subtilis. However, we observed over eight-fold MIC changes for Klebsiella pneumoniae and vancomycin-resistant enterococcus (VRE). […] We also observed more than eight-fold changes in minimal bacterial killing concentrations.
(§2) The antibacterial activity of peptides was evaluated using a standard broth microdilution protocol with minor modifications as previously described. In brief, logarithmic phase bacterial cultures (i.e., optical density at 600 nm ≈ 0.5) were diluted to OD600~0.001 and partitioned into a 96-well polystyrene microplate at 90 μL per well. After treatment with 10 μL of peptide solutions two-fold diluted to various concentrations, microplates were incubated at 37 °C overnight and read on a ChroMate 4300 Microplate Reader at 630 nm (GMI, Ramsey, MN). […] Minimal bactericidal concentration (MBC) was determined by plating the clear wells at MIC or above. The peptide concentration that caused no bacterial growth on the petri dish is MBC.

[2] = tested on: P. aeruginosa PAO1; type: cell-based, Pseudomonas aeruginosa
Method: as §1, §2

[3] = tested on: S. aureus USA300 LAC; type: cell-based, Staphylococcus aureus
Method: (§3) To gain additional insight, we also compared the effects of physiological saline and human serum on the antibacterial activities of WW291-WW298 using both E. coli and S. aureus (Table 3). In our assays, salts and serum were present during the entire course of the experiment. […] Thus, WW295 and WW298 stand out in terms of activity robustness (bold in Table 3).
as §2

[4] = tested on: B. subtilis 167; type: cell-based, Bacillus subtilis
Method: as §1, §2

[5] = tested on: E. coli ATCC 25922; type: cell-based, Escherichia coli
Method: as §3, §2

[6] = tested on: E. coli K12; type: cell-based, Escherichia coli
Method: as §1, §2

[7] = tested on: S. aureus Mu50; type: cell-based, Staphylococcus aureus
Method: as §1, §2

[8] = tested on: S. aureus USA300; type: cell-based, Staphylococcus aureus
Method: as §2

[9] = tested on: monkey kidney Vero E6 cells; type: cell-based
Method: Peptides were assayed for potential in vitro toxicity against human keratinocytes (HaCaT) and THP-1 cells as previously described. THP-1 monocytes were differentiated into macrophages by adding 30 ng/mL of phorbol 12-myristate 13-acetate (PMA; Sigma-Aldrich) to RPMI 1640 supplemented with 10% fetal calf serum culture (FCS) medium for 16 h. Briefly, cells were seeded at a density of 3 × 10^4 per well in a tissue culture 96-well plate in DMEM/RPMI supplemented with 10% fetal bovine serum (FBS), and incubated at 37 °C in a 5% CO2 atmosphere for 24 h. African green monkey kidney Vero E6 cells were cultivated in EMEM in the same manner. Before antimicrobial treatment, wells were replaced with serum free media and treated with peptides at different concentrations for one hour. After incubation, the cells were washed and incubated with 100 μL of DMEM media containing 20 μL of 3-(4,5-dimethylthiazol-2-yl)-5-(3-carboxymethoxyphenyl)-2-(4-sulfophenyl)-2H-tetrazolium (MTS) reagent for two hours at 37 °C. […] Absorbance readings at 492 nm were taken using a ChroMate microplate reader (GMI, Ramsey, MN, USA).

[10] = tested on: chicken red blood cells; test: Hemolytic assay; type: cell-based
Method: (§4) Hemolytic assays of peptides were performed as previously described. Briefly, human red blood cells (hRBCs) obtained from UNMC Blood Bank, or chicken or porcine blood cells purchased from commercial sources as previously described, were washed three times with phosphate buffer saline (PBS) and diluted to a 2% solution (V/v). After peptide treatment, incubation at 37 °C for one hour, and centrifugation at 13,000 rpm, aliquots of the supernatant were carefully transferred to a fresh 96-well microplate. The amount of hemoglobin released was measured at 545 nm. The percent lysis was calculated by assuming 100% release when human blood cells were treated with 2% Triton X-100, and 0% release when incubated with PBS buffer. The peptide concentration that caused 50% lysis of hRBCs is defined as HC50.

[11] = tested on: human red blood cells; test: Hemolytic assay; type: cell-based
Method: as §4

[12] = tested on: Pig RBC; test: Hemolytic assay; type: cell-based
Method: as §4

[13] = tested on: PMA differentiated THP-1 cells; test: MTS cytotoxicity assay; type: cell-based; details: PMA differentiated THP-1, serum free media, one hour treatment
Method: (§5) Peptides were assayed for potential in vitro toxicity against human keratinocytes (HaCaT) and THP-1 cells as previously described. THP-1 monocytes were differentiated into macrophages by adding 30 ng/mL of phorbol 12-myristate 13-acetate (PMA; Sigma-Aldrich) to RPMI 1640 supplemented with 10% fetal calf serum culture (FCS) medium for 16 h. Briefly, cells were seeded at a density of 3 × 10^4 per well in a tissue culture 96-well plate in DMEM/RPMI supplemented with 10% fetal bovine serum (FBS), and incubated at 37 °C in a 5% CO2 atmosphere for 24 h. African green monkey kidney Vero E6 cells were cultivated in EMEM in the same manner. Before antimicrobial treatment, wells were replaced with serum free media and treated with peptides at different concentrations for one hour. After incubation, the cells were washed and incubated with 100 μL of DMEM media containing 20 μL of 3-(4,5-dimethylthiazol-2-yl)-5-(3-carboxymethoxyphenyl)-2-(4-sulfophenyl)-2H-tetrazolium (MTS) reagent for two hours at 37 °C. The treatment time was one hour in the case of Vero E6 cells. Absorbance readings at 492 nm were taken using a ChroMate microplate reader (GMI, Ramsey, MN, USA).

[14] = tested on: human keratinocytes (HaCaT); test: MTS cytotoxicity assay; type: cell-based; details: serum free media, one hour treatment
Method: as §5

[15] = tested on: E. faecium VRE; type: cell-based
Method: as §1, §2

[16] = 2% RBC in PBS, 37 °C, one hour, hemoglobin at 545 nm

Row | Sequence | Minimal Inhibitory Concentration (MIC), AB ([1]; B28-16) [µM] | Minimal Inhibitory Concentration (MIC), PA ([2]; PAO1) [µM] | MIC, +150 mM NaCl ([3]; USA300) [µM] | MIC, +10% Human Serum ([3]; USA300) [µM] | MIC, TSB ([3]; USA300) [µM] | Minimal Inhibitory Concentration (MIC), BS [4]; 167 [µM] | MIC, +150 mM NaCl ([5]; ATCC 25922) [µM] | MIC, +10% Human Serum ([5]; ATCC 25922) [µM] | MIC, TSB ([5]; ATCC 25922) [µM] | Minimal Inhibitory Concentration (MIC), EC ([6]; K12) [µM] | Minimal Inhibitory Concentration (MIC), SA ([7]; Mu50) [µM] | MBC, USA300 ([8]; USA300) [µM] | Vero Cells, concentration that caused 50% cell death (LC50) [9] [µM] | Chicken RBC, concentration that caused 50% red blood cell lysis (HC50) [10] [µM] | Human RBC, concentration that caused 50% red blood cell lysis (HC50) ([11]; red cells of human) [µM] | Pig RBC, concentration that caused 50% red blood cell lysis (HC50) [12] [µM] | THP-1, concentration that caused 50% cell death (LC50) [13] [µM] | HaCaT, concentration that caused 50% cell death (LC50) [14] [µM] | Minimal Inhibitory Concentration (MIC), VRE ([15]; VRE) [µM] | further results
1 | WWWWLRKI [WW298] | 6.25 to 12.5 | 50 | 1.6 | 12.5 to 25 | 1.6 | 6.25 to 12.5 | 12.5 | >25 | 12.5 | 12.5 | 3.1 | 3.1 | 100 | 70 | 52 | 37 | 30 | 80 | 12.5 | 
2 | LRKIWWWW [WW294] | 12.5 | 50 | 6.2 | 25 | 6.2 | 25 | 25 | >25 | 12.5 | 12.5 | 12.5 | 25 | >100 | >100 | 143 | >100 | >100 | >100 | 25 | 
3 | WWLRKIWW [WW292] | 12.5 | 25 | 6.2 | >25 | 6.2 | 12.5 | >25 | >25 | 12.5 | 25 | 12.5 | >25 | >100 | >100 | 175 | >100 | >100 | >100 | >50 | 
4 | IWWWWLRK [WW297] |  |  |  |  |  |  |  |  |  |  |  |  |  |  |  |  | 38 | 100 |  | Minimal Inhibitory Concentration (MIC), AB ([1]; A. baumannii B28-16, broth microdilution, 37 °C overnight): 6.25 to 12.5 µM; Minimal Inhibitory Concentration (MIC), PA ([2]; P. aeruginosa PAO1, broth microdilution, 37 °C overnight): 50 µM; MIC, TSB ([3]; S. aureus USA300 LAC, TSB): 3.1 µM; MIC, +150 mM NaCl ([3]; S. aureus USA300 LAC, TSB +150 mM NaCl, present during entire experiment): 3.1 µM; MIC, +10% Human Serum ([3]; S. aureus USA300 LAC, TSB +10% human serum, present during entire experiment): 25 µM; Minimal Inhibitory Concentration (MIC), BS ([4]; B. subtilis 167, broth microdilution, 37 °C overnight): 12.5 µM; MIC, TSB ([5]; E. coli ATCC 25922, TSB): 12.5 µM; MIC, +150 mM NaCl ([5]; E. coli ATCC 25922, TSB +150 mM NaCl, present during entire experiment): 12.5 µM; MIC, +10% Human Serum ([5]; E. coli ATCC 25922, TSB +10% human serum, present during entire experiment): >25 µM; Minimal Inhibitory Concentration (MIC), EC ([6]; E. coli K12, broth microdilution, 37 °C overnight): 12.5 to 25 µM; Minimal Inhibitory Concentration (MIC), SA ([7]; S. aureus Mu50, broth microdilution, 37 °C overnight): 6.2 µM; MBC, USA300 ([8]; S. aureus USA300, minimal bactericidal concentration, plating clear wells at MIC or above): 12.5 µM; Vero Cells, concentration that caused 50% cell death (LC50) ([9]; Vero E6, serum free media, one hour treatment, MTS assay): >100 µM; Chicken RBC, concentration that caused 50% red blood cell lysis (HC50) [10, 16]: 100 µM; Human RBC, concentration that caused 50% red blood cell lysis (HC50) [11, 16]: 134 µM; Pig RBC, concentration that caused 50% red blood cell lysis (HC50) [12, 16]: 110 µM; Minimal Inhibitory Concentration (MIC), VRE ([15]; E. faecium VRE, broth microdilution, 37 °C overnight): 12.5 µM
